Data reported in US20250332378A1, “CATHETERS” (ConvaTec Limited, priority 2023, published 2025).

Key:
Format in all cases: cell-based
[1] = test system: E. coli; test: Rate of kill assessment against repeat inoculation, catheter submerged in medium; details: for time up to which rapid kill was observed: within 5 seconds following inoculation, repeat inoculation up to 24 hours; for time up to which highly effective kill was observed: all time periods post-inoculation
Procedure: (§1) To assess the sterilisation potential of the medium of the invention, a microbiology assessment was conducted which consisted of rate of kill assessments against repeat inoculation of E. coli and E. faecalis. These organisms were selected as they are commonly identified in catheter associated urinary tract infections. The selection also covers both gram-positive and gram-negative species to test the broad spectrum antimicrobial performance of the medium of the invention.
(§2) Intermittent urinary catheters, as used for Example 1, were provided and submerged in an aqueous medium comprising sodium hypochlorite and sodium chloride. The media comprising the catheters were respectively inoculated with the two microorganisms.
(§3) A direct inoculation method was applied against each microorganism. The test organisms were reinoculated following 1, 2, 3, 4, 5, 6, and 24 hours. Following each inoculation, a sample was taken after 5 seconds, 1, 5, 10 and 15 minutes to evaluate the rate of kill.
(§4) A microbiology assessment was performed using a medium of the invention comprising hypochlorous acid in an analogous manner to that performed for Example 2. However, for this test, following each inoculation, a sample was only taken after 5 seconds to evaluate the rate of kill. Further, in addition to the previous microorganisms tested, a further gram-positive organism, S. aureus, was tested.
(§5) To evaluate the antimicrobial activity further, the test was repeated using the same frequency of inoculation, but with sampling performed up to 5 minutes after reinoculation at 24 hours. Even for the most challenging organism, E. faecalis, a reduction in the microbial colony forming unit (CFU) counts of over 3 orders of magnitude was observed after 5 minutes of inoculation.
(§6) A microbiology assessment was performed using the media of the invention comprising hypochlorous acid in an analogous manner to that performed for Example 2. However, for this test, following each inoculation, samples were taken after 5 seconds, 30 seconds, 1, 2, and 5 minutes to evaluate the rate of kill.

[2] = test system: E. faecalis; test: as above; details: for reduction in the microbial colony forming unit (CFU) counts: reinoculation at 24 hours; for time up to which rapid kill was observed: within 5 seconds following inoculation, repeat inoculation up to 24 hours
Procedure: as §1, §2, §3, §4, §5, §6

[3] = test system: S. aureus; test: as above; details: within 5 seconds following inoculation; repeat inoculation up to 24 hours
Procedure: as §1, §2, §3, §4

[4] = test system: E. coli NCIMB 14067; test: Antimicrobial efficacy at very low concentrations, total viable counts; details: for numbers of bacteria: after 30 seconds, approximately 1×10^5 CFU/mL inoculated
Procedure: The antimicrobial efficacy of hypochlorous acid was tested at even lower concentrations (10, 25, and 50 ppm) against the challenging organism E. coli NCIMB 14067.
The representative colonies of E. coli NCIMB 14067 were dispersed in maximum recovery diluent (MRD) to obtain an optical density (OD540 nm) equivalent to approximately 1×10^6 CFU/mL. A quantitative plate count was performed on this suspension to determine the total number of viable organisms inoculated. A new suspension was prepared for each concentration tested.
A 1000 ppm hypochlorous acid solution was diluted in sterile deionised water to provide the respective 10, 25 and 50 ppm hypochlorous acid solutions.
The hypochlorous acid samples were aliquoted into 9 mL volumes and 1 mL of the challenge organism suspension was added and mixed (the final number of bacteria present is now approximately 1×10^5 CFU/mL). Following 5, 30 seconds, 1, 2, and 5 minutes, 100 μL volumes were sampled and transferred to 0.9 mL and 9.9 mL of Dey-Engley Neutralising Broth (DENB) (to provide a 1:10 and 1:100 dilution respectively), and total viable counts were performed to establish the amount present. The plates were left to dry before being inverted and incubated at 35±3° C. for at least 48 hours. A negative control was also tested whereby 1 mL of the challenge organism suspension was added to 9 mL of MRD and tested as previously described. Following the incubation period, the number of CFUs were counted on the most appropriate dilution for each sample i.e. between 25-250 CFU/plate.

[5] = test system: Enterococcus faecalis NCTC 12201; test: In vitro direct inoculation method, comparative test
Procedure: (§7) An in vitro direct inoculation method was used to assess the antimicrobial activity of sulfanilamide in an intermittent urinary catheter scenario against […] Escherichia coli NCIMB 14067 and […] Enterococcus faecalis NCTC 12201; two microorganisms associated with urinary tract infections. Sulfanilamide concentrations of 0.1% and 0.01% were tested and bacterial levels monitored over a period of 5 minutes.
(§8) Representative colonies of the challenge microorganisms, from an 18-24 hour challenge culture plate, were dispersed in MRD to obtain an optical density (OD540 nm) equivalent to approximately 1×10^8 CFU/mL. This was diluted to obtain a working concentration of 1×10^6 CFU/mL. A quantitative count was performed to confirm the inoculum level.
(§9) The challenge organism was prepared in MRD to a concentration of approximately 1×10^6 CFU/mL. This suspension was added in a 1 mL volume to 9 mL of sample (n=3 per sample, n=2 per control) in a sterile 30 mL universal and pipetted up and down to mix. Following each testing period, 5 seconds, 30 seconds, 1 minute, 2 minutes and 5 minutes, 100 μL of the test solution was transferred to 0.9 mL and 9.9 mL volumes of DENB (1:10 and 1:100 dilutions respectively). The most appropriate dilutions were inoculated (100 μL) onto duplicate pre-dried (tryptone soy agar) TSA plates and the inoculum spread using separate sterile L-shaped spreaders (for 10^−1 and 10^−2 dilutions, 0.5 mL were placed onto duplicate plates). The TSA plates were allowed to dry before being inverted and incubated at 35±3° C. for at least 48 hours. Following the incubation period, the number of bacterial colonies were counted on the most appropriate dilution for each dressing type i.e. between 25-250 CFU/plate.
(§10) The samples tested were: 0.1% sulfanilamide in sterile deionised water (SDW); 0.01% sulfanilamide in SDW; 100 ppm hypochlorous acid in SDW; and a SDW control.

[6] = test system: Escherichia coli NCIMB 14067; test: as above
Procedure: as §7, §8, §9, §10

[7] = 675 ppm, 30 seconds after sampling
[8] = each concentration tested (250, 675, 1000, 2000 ppm), after 5 minutes of sampling
[9] = 100 ppm in SDW, within 5 seconds and for the remaining testing period (5 minutes)
[10] = 0.1% and 0.01% in SDW, any timepoint, 5 seconds to 5 minutes

## [O][Cl+][O-] [chlorine dioxide]
[1]
  time up to which rapid kill was observed: up to 24 hours
[2]; after around 30 seconds of inoculation
  reduction in the microbial colony forming unit (CFU) counts: 4 orders of magnitude
[2]
  time up to which rapid kill was observed: up to 6 hours
[3]
  time up to which rapid kill was observed: up to 6 hours

## OCl [hypochlorous acid]
[1]; 250 ppm
  time up to which highly effective kill was observed: up to 5 hours
[1]; 675 ppm and above
  time up to which highly effective kill was observed: up to 24 hours
[1]; [7]
  time up to which effective kill was observed: up to 24 hours
[1]; [8]
  time up to which effective kill was found: up to 24 hours
[1]
  time up to which rapid kill was observed: up to 24 hours
[2]; 250 ppm, 30 seconds post-inoculation
  time up to which highly effective kill was observed: Up to 5 hours
[2]; 250 ppm, all time periods post-inoculation
  time up to which highly effective kill was observed: up to 4 hours
[2]; [7]
  time up to which effective kill was observed: up to 24 hours
[2]; 675 ppm, all time periods post-inoculation
  time up to which highly effective kill was observed: up to 6 hours
[2]; 675 ppm, from 30 seconds post-inoculation
  time up to which highly effective kill was observed: up to 24 hours
[2]; 1000 ppm, all time periods post-inoculation
  time up to which highly effective kill was observed: up to 24 hours
[2]; after 5 minutes of inoculation
  reduction in the microbial colony forming unit (CFU) counts: over 3 orders of magnitude
[2]; [8]
  time up to which effective kill was found: up to 24 hours
[2]
  time up to which rapid kill was observed: up to 6 hours
[4]; 25 ppm
  numbers of bacteria: undetectable numbers
[4]; 50 ppm
  numbers of bacteria: undetectable numbers
[4]; all concentrations (10, 25, 50 ppm) and time points tested
  CFU/mL of negative control (MRD) larger than for the samples by: over 4 orders of magnitude
[3]
  time up to which rapid kill was observed: up to 6 hours
[5]; [9]
  numbers of challenge organism: undetectable numbers
[6]; [9]
  numbers of challenge organism: undetectable numbers

## Nc1ccc(S(N)(=O)=O)cc1 [sulfanilamide, reference compound]
[5]; [10]
  change in challenge organism numbers compared to the control: no decrease
[6]; [10]
  change in challenge organism numbers compared to the control: no decrease
